Source: patent EP3939578A1, “COMPOUNDS FOR TREATMENT OR PREVENTION OF AN INFECTION RESULTING FROM A CORONAVIRUS AND/OR A CORONAVIRUS-INDUCED DISEASE” (Novaremed Ltd., priority 2020, dated 2022)
Entries after “also recorded” stand apart in the source; their conditions may differ.

How the values were obtained:
[1] = Gravimetric Vapour Sorption (GVS); assay type: physicochemical
Experimental: Approximately 10 mg of sample was placed into a wire-mesh vapour sorption balance pan and loaded into an 'IgaSorp' vapour sorption balance (Hiden Analytical Instruments). The sample was then dried by maintaining a 0% humidity environment until no further weight change was recorded. Subsequently, the sample was subjected to a ramping profile from 0 - 90 % RH at 10 % RH increments, maintaining the sample at each step until equilibration had been attained (99% step completion). Upon reaching equilibration, the % RH within the apparatus was ramped to the next step and the equilibration procedure repeated. After completion of the sorption cycle, the sample was then dried using the same procedure. The weight change during the sorption/desorption cycles were then monitored, allowing for the hygroscopic nature of the sample to be determined.

[2] = Dog bioavailability tests of polymorphs 1 and 2; assay type: in vivo; settings: compared with polymorph 1
From the text: The bioavailability of polymorphs 1 and 2 has also been tested and made available in PCT/EP2020/051528 as Example 3 and is incorporated herein by reference.

Structure (SMILES)	rapid moisture uptake between 70% and 80% RH ([1]; GVS, between 70% and 80% RH, hysteresis between adsorption and desorption cycles)	weight increase in second adsorption cycle ([1]; GVS, second adsorption cycle, at an RH of 40%, different form arising after the first cycle)	weight increase to 70% RH ([1]; GVS, to 70% RH)	bioavailability [2]	overall weight loss by the end of the two adsorption/desorption cycles ([1]; GVS, after two adsorption/desorption cycles, sharp weight loss at 90% RH)	weight gain to 80% RH ([1]; GVS, to 80% RH)	change of polymorphic form (XRPD) after GVS ([1]; XRPD after two adsorption/desorption cycles)
C[C@H](O)COC[C@H](Cc1ccc(O)cc1)NC(=O)CCc1ccccc1 [polymorph 1, (S,S)-2-N(3-O-(propan-2-ol)-1-propyl-4-hydroxybenzene)-3-phenylpropylamide]	5.6%	> 2%	~1.3%				
C[C@H](O)COC[C@H](Cc1ccc(O)cc1)NC(=O)CCc1ccccc1 [polymorph 2, (S,S)-2-N(3-O-(propan-2-ol)-1-propyl-4-hydroxybenzene)-3-phenylpropylamide]				higher than for polymorph 1; also recorded: better bioavailability as compared to polymorph 1; also recorded: exceptionally high	~1%	0.6%	no change of polymorphic form
